Assay results as given in patent US20110152246A1, “NOVEL INHIBITORS OF HEPATITIS C VIRUS REPLICATION” (InterMune, Inc., priority 2009, published 2011).

tested on: Huh7 cells containing HCV replicons with an integrated luciferase reporter gene; experiment: HCV Replicon Assay (luciferase reporter); type: cell-based; settings: Hepatitis C virus, Huh-7, 48 h, read-out: EC50 nM
Protocol: Huh7 cells containing HCV replicons with an integrated luciferase reporter gene are maintained at 37° C. in 5% CO2 in Dulbecco's modified Eagle's medium (DMEM; Mediatech, Herndon, Va.) containing 10% heat-inactivated fetal bovine serum (FBS; Mediatech, Herndon, Va.), 2 mM L-glutamine (Cambrex Bioscience, Walkersville, Md.), 1% non essential amino acids (Lonza, Walkersville, Md.), 50 IU/mL penicillin (Mediatech, Herndon, Va.), […] streptomycin (Mediatech, Herndon, Va.) and 0.5 mg/mL G418 (Promega, Madison, Wis.). Cells are sub-divided 1:3 or 4 every 2-3 days.
24 h prior to the assay, Huh7 cells containing sub-genomic HCV replicons are collected, counted, and plated in Nunclon 96-well tissue culture plates (ThermoFisher, Rochester, N.Y.) at 5000 cells/well in […] standard maintenance medium (above) and incubated in the conditions above. To initiate the assay, culture medium is removed, and replaced with […] maintenance media lacking G418. Test compounds are serially diluted three-fold in dimethyl sulfoxide (DMSO) in two duplicate rows for each EC50 determination. These compound solutions are diluted ten-fold in DMEM lacking serum and G418. […] of these compound solutions in media are added to duplicate tissue culture plates. The final volume is 100 μL with a DMSO concentration of 1%. Compound concentrations are adjusted to appropriately define a dose response curve. Typical dilution series range from […] to 1.69 nM final concentrations to 1 nM to 16.9 fM final. Plates are incubated at 37° C. for approximately 48 hr.
Following incubation, media is removed from one of the two duplicate plates and replicon-reporter luciferase activity is measured using a Bright-Glo luciferase assay kit (Promega, Madison, Wis.) according to manufacturer's instructions. Semi-log plots of luciferase activity versus the logarithm of compound concentration are fit to a 4-parameter logistic function using XLfit software (IDBS Inc., Guildford, UK) to determine EC50.

Structure (SMILES)	EC50 [nM]
O=C(Nc1ccc(-c2ccc3nc(NC(=O)[C@@H]4CCCN4C(=O)Cc4ccccc4)ccc3c2)cn1)[C@@H]1CCCN1C(=O)Cc1ccccc1 [Compound 216]	< 10
COC(=O)N[C@H](C(=O)N1CCC[C@H]1C(=O)Nc1ccc(C(=O)Nc2ccc(NC(=O)[C@@H]3CCCN3C(=O)Cc3ccccc3)cc2)cc1)C(C)C [Compound 104]	10 to 100
O=C(Cc1ccccc1)N1CCC[C@H]1c1ncc(-c2ccc(-c3ccc(-c4cnc([C@@H]5CCCN5C(=O)Cc5ccccc5)[nH]4)c4ccccc34)cc2)[nH]1 [Compound 302]	< 10
COC(=O)N[C@H](C(=O)N1CCC[C@H]1C(=O)Nc1ccc(NC(=O)c2ccc(NC(=O)[C@@H]3CCCN3C(=O)[C@@H](NC(=O)OC)C(C)C)cc2)cc1)C(C)C [Compound 102]	10 to 100

same assay, conditions: Hepatitis C virus, Huh-7; Huh7 HCV replicon cells, luciferase activity, approximately 48 hr incubation; read-out: EC50

Structure (SMILES)	EC50 [nM]
COC(=O)N[C@H](C(=O)N1CCC[C@H]1C(=O)Nc1ccc2cc(-c3ccc(NC(=O)[C@@H]4CCCN4C(=O)Cc4ccccc4)cc3)ccc2c1)C(C)C [Compound 203]	< 10
COC(=O)NC(C(=O)N1CCC[C@H]1c1nc(-c2ccc(-c3ccc(-c4c[nH]c([C@@H]5CCCN5C(=O)[C@@H](NC(=O)OC)C(C)C)n4)c4c3CCCC4)cc2)c[nH]1)C(C)C (stereo partly shown) [Compound 304]	< 10
COC(=O)N[C@H](C(=O)N1CCC[C@H]1C(=O)Nc1ccc(-c2ccc3cc(NC(=O)[C@@H]4CCCN4C(=O)Cc4ccccc4)ccc3c2)cn1)C(C)C [Compound 208]	< 10
COC(=O)N[C@H](C(=O)N1CCC[C@H]1C(=O)Nc1ccc(-c2nc3ccc(NC(=O)[C@@H]4CCCN4C(=O)[C@@H](NC(=O)OC)C(C)C)cc3s2)cc1)C(C)C [Compound 403]	< 10
COC(=O)N[C@H](C(=O)N1CCC[C@H]1C(=O)Nc1ccc2cc(NC(=O)[C@@H]3CCCN3C(=O)Cc3ccccc3)ccc2c1)C(C)C [Compound 205]	> 100
COC(=O)NCC(=O)N1CCC[C@H]1c1ncc(-c2ccc(-c3ccc(-c4cnc([C@@H]5CCCN5C(=O)CNC(=O)OC)[nH]4)c4ccccc34)cc2)[nH]1 [Compound 325]	< 10
COC(=O)N[C@H](C(=O)N1CCC[C@H]1C(=O)Nc1ccc2cc(NC(=O)[C@@H]3CCCN3C(=O)[C@@H](NC(=O)OC)C(C)C)ccc2c1)C(C)C [Compound 204]	10 to 100
COC(=O)N[C@H](C(=O)N1CCOC[C@H]1c1nc(-c2ccc3cc(-c4ccc5[nH]c([C@@H]6COCCN6C(=O)[C@@H](NC(=O)OC)C(C)C)nc5c4)ccc3c2)c[nH]1)C(C)C [Compound 419]	< 10
COC(=O)N[C@H](C(=O)N1CCC[C@H]1c1nc(-c2ccc(-c3ccc(-c4c[nH]c([C@@H]5CCCN5C(=O)Cc5ccccc5)n4)cc3)c3ccccc23)c[nH]1)C(C)C [Compound 308]	< 10
COC(=O)N[C@H](C(=O)N1CCC[C@H]1C(=O)Nc1ncc(-c2ccc3nc(NC(=O)[C@@H]4CCCN4C(=O)Cc4ccccc4)ccc3c2)cn1)C(C)C [Compound 214]	10 to 100
O=C(Nc1ccc2cc(-c3ccc(NC(=O)[C@@H]4CCCN4C(=O)Cc4ccccc4)nc3)ccc2c1)[C@@H]1CCCN1C(=O)Cc1ccccc1 [Compound 206]	< 10
COC(=O)N[C@H](C(=O)N1CCC[C@H]1c1nc(-c2ccc(-c3ccc(-c4c[nH]c([C@@H]5CCCN5C(=O)[C@@H](NC(=O)OC)C(C)C)n4)c4c3CCC4)cc2)c[nH]1)C(C)C [Compound 306]	< 10
COC(=O)N[C@H](C(=O)N1CCC[C@H]1c1ncc(-c2ccc(-c3ccc(-c4cnc([C@@H]5CCCN5C(=O)[C@@H](NC(=O)OC)C(C)C)[nH]4)c4ccccc34)cc2)[nH]1)C(C)C [Compound 301]	< 10
COC(=O)N[C@H](C(=O)N1CCC[C@H]1C(=O)Nc1ccc(-c2ccc3cc(NC(=O)[C@@H]4CCCN4C(=O)[C@@H](NC(=O)OC)C(C)C)ccc3c2)cc1)C(C)C [Compound 201]	< 10
COC(=O)N[C@H](C(=O)N1CCCC[C@H]1c1nc(-c2ccc3cc(-c4ccc5[nH]c([C@@H]6CCCCN6C(=O)[C@@H](NC(=O)OC)C(C)C)nc5c4)ccc3c2)c[nH]1)C(C)C [Compound 418]	< 10
COC(=O)N[C@H](C(=O)N1CCC[C@H]1C(=O)Nc1ccc2cc(-c3cnc(NC(=O)[C@@H]4CCCN4C(=O)[C@@H](NC(=O)OC)C(C)C)nc3)ccc2n1)C(C)C [Compound 212]	< 10
COC(=O)N[C@H](C(=O)N1CCC[C@H]1C(=O)OCC(=O)c1ccc(-c2ccc(C(=O)COC(=O)[C@@H]3CCCN3C(=O)[C@@H](NC(=O)OC)C(C)C)c3c2CCC3)cc1)C(C)C [Compound 305]	> 100
COC(=O)N[C@H](C(=O)N1CCC[C@H]1c1nc(-c2ccc(-c3ccc(-c4c[nH]c([C@@H]5CCCN5C(=O)[C@@H](NC(=O)OC)C(C)C)n4)c4sc(C)nc34)cc2)c[nH]1)C(C)C [Compound 310]	< 10

Structure (SMILES)	EC50 [nM]
COC(=O)N[C@H](C(=O)N1CCC[C@H]1c1nc(-c2ccc(-c3ccc(-c4c[nH]c([C@@H]5CCCN5C(=O)[C@@H](NC(=O)OC)C(C)C)n4)c4ncccc34)cc2)c[nH]1)C(C)C [Compound 315]	< 10
COC(=O)N[C@H](C(=O)N1CCC[C@H]1c1nc(-c2ccc(-c3ccc(-c4c[nH]c([C@@H]5CCCN5C(=O)[C@@H](NC(=O)OC)C(C)C)n4)c4c3ccn4C)cc2)c[nH]1)C(C)C [Compound 327]	< 10
COC(=O)N[C@H](C(=O)N1CCC[C@H]1C(=O)Nc1ccc2cc(-c3ccc(NC(=O)[C@@H]4CCCN4C(=O)Cc4ccccc4)nc3)ccc2c1)C(C)C [Compound 209]	< 10
O=C(Nc1ccc(-c2ccc3cc(NC(=O)[C@@H]4CCCN4C(=O)Cc4ccccc4)ccc3c2)cc1)[C@@H]1CCCN1C(=O)Cc1ccccc1 [Compound 211]	< 10
CC(C)[C@H](Nc1ncccn1)C(=O)N1CCC[C@H]1c1nc(-c2ccc3cc(-c4ccc5[nH]c([C@@H]6CCCN6C(=O)[C@@H](Nc6ncccn6)C(C)C)nc5c4)ccc3c2)c[nH]1 [Compound 420]	< 10
COC(=O)N[C@H](C(=O)N1CCC[C@H]1C(=O)Nc1ccc(-c2ccc3nc(NC(=O)[C@@H]4CCCN4C(=O)[C@@H](NC(=O)OC)C(C)C)ccc3c2)cn1)C(C)C [Compound 217]	< 10
COC(=O)N[C@H](C(=O)N1CCC[C@H]1C(=O)OCC(=O)c1ccc(-c2ccc(C(=O)COC(=O)[C@@H]3CCCN3C(=O)[C@@H](NC(=O)OC)C(C)C)c3c2CCCC3)cc1)C(C)C [Compound 303]	10 to 100
COC(=O)N[C@H](C(=O)N1CCC[C@H]1C(=O)Nc1ccc2cc(-c3cnc(NC(=O)[C@@H]4CCCN4C(=O)[C@@H](NC(=O)OC)C(C)C)nc3)ccc2c1)C(C)C [Compound 221]	< 10
COC(=O)N[C@H](C(=O)N1CCC[C@H]1c1nc(-c2ccc(-c3ccc(-c4c[nH]c([C@@H]5CCCN5C(=O)[C@@H](NC(=O)OC)C(C)C)n4)c4sccc34)cc2)c[nH]1)C(C)C [Compound 311]	< 10
COC(=O)N[C@H](C(=O)N1CCC[C@H]1c1nc(-c2ccc(-c3ccc(-c4c[nH]c([C@@H]5CCCN5C(=O)[C@@H](NC(=O)OC)C(C)C)n4)c4[nH]cc(C)c34)cc2)c[nH]1)C(C)C [Compound 330]	< 10
O=S(=O)(Cc1ccccc1)N1CCC[C@H]1c1ncc(-c2ccc(-c3ccc(-c4cnc([C@@H]5CCCN5S(=O)(=O)Cc5ccccc5)[nH]4)c4ccccc34)cc2)[nH]1 [Compound 326]	> 100
COC(=O)N[C@H](C(=O)N1CCC[C@@]1(C)c1nc(-c2ccc(-c3ccc(-c4c[nH]c([C@]5(C)CCCN5C(=O)[C@@H](NC(=O)OC)C(C)C)n4)c4c3OCO4)cc2)c[nH]1)C(C)C [Compound 328]	< 10
COC(=O)N[C@H](C(=O)N1CCC[C@H]1C(=O)Nc1ccc2cc(-c3ccc(NC(=O)[C@@H]4CCCN4C(=O)[C@@H](NC(=O)OC)C(C)C)nc3)ccc2c1)C(C)C [Compound 207]	< 10
O=C(Nc1ccc2cc(NC(=O)[C@@H]3CCCN3C(=O)Cc3ccccc3)ccc2c1)[C@@H]1CCCN1C(=O)Cc1ccccc1 [Compound 210]	> 100
COC(=O)N[C@H](C(=O)N1CCC[C@H]1c1nc(-c2ccc(-c3ccc4cc(-c5c[nH]c([C@]6(C)CCCN6C(=O)[C@@H](NC(=O)OC)C(C)C)n5)ccc4c3)cc2)c[nH]1)C(C)C [Compound 222]	< 10
COC(=O)N[C@H](C(=O)N1CCC[C@H]1c1nc(-c2ccc(-c3ccc(-c4c[nH]c([C@@H]5CCCN5C(=O)[C@@H](NC(=O)OC)C(C)C)n4)c4oc(C)nc34)cc2)c[nH]1)C(C)C [Compound 323]	< 10
O=C(Nc1ccc(NC(=O)[C@@H]2CCCN2C(=O)Cc2ccccc2)cc1)c1ccc(NC(=O)[C@@H]2CCCN2C(=O)Cc2ccccc2)cc1 [Compound 101]	10 to 100
COC(=O)N[C@H](C(=O)N1CCC[C@H]1c1nc(-c2ccc3cc(-c4ccc5[nH]c([C@@H]6CCCN6C(=O)[C@@H](NC(=O)OC)C(C)C)nc5c4)ccc3c2)c[nH]1)C(C)C [Compound 402]	< 10
